In ChEMBL document CHEMBL4308841, “Synthesis, in vitro antiproliferative activity, and kinase inhibitory effects of pyrazole-containing diarylureas and diarylamides” (Eur J Med Chem, 2018):

Tests used:
SK-MEL-2 [1] = assay: Growth inhibition of human SK-MEL-2 cells assessed as cell growth at 10 uM incubated for 48 hrs by sulforhodamine B assay relative to control; format: functional; conditions: SK-MEL-2, 48 h, read-out: Activity
RPMI-8226 = assay: Growth inhibition of human RPMI8226 cells incubated for 48 hrs by sulforhodamine B assay; format: functional, cell-based; conditions: RPMI-8226, 48 h
NCI-H226 = assay: Growth inhibition of human NCI-H226 cells incubated for 48 hrs by sulforhodamine B assay; format: functional, cell-based; conditions: NCI-H226, 48 h
SK-MEL-2 [2] = assay: Growth inhibition of human SK-MEL-2 cells incubated for 48 hrs by sulforhodamine B assay; format: functional, cell-based; conditions: SK-MEL-2, 48 h
SK-MEL-28 [3] = assay: Growth inhibition of human SK-MEL-28 cells incubated for 48 hrs by sulforhodamine B assay; format: functional, cell-based; conditions: SK-MEL-28, 48 h
OVCAR-3 [4] = assay: Growth inhibition of human OVCAR3 cells incubated for 48 hrs by sulforhodamine B assay; format: functional, cell-based; conditions: OVCAR-3, 48 h
Hs-578T = assay: Growth inhibition of human Hs578T cells incubated for 48 hrs by sulforhodamine B assay; format: functional, cell-based
K562 = assay: Growth inhibition of human K562 cells assessed as cell growth at 0.01 uM incubated for 48 hrs by sulforhodamine B assay relative to control; format: functional; conditions: K562, 48 h, read-out: Activity
SF-295 = assay: Growth inhibition of human SF295 cells assessed as cell growth at 0.01 uM incubated for 48 hrs by sulforhodamine B assay relative to control; format: functional; conditions: SF-295, 48 h, read-out: Activity
Malme-3M [5] = assay: Growth inhibition of human MALME-3M cells assessed as cell growth at 0.01 uM incubated for 48 hrs by sulforhodamine B assay relative to control; format: functional; conditions: read-out: Activity
SK-MEL-5 = assay: Growth inhibition of human SK-MEL-5 cells assessed as cell growth at 0.01 uM incubated for 48 hrs by sulforhodamine B assay relative to control; format: functional; conditions: SK-MEL-5, 48 h, read-out: Activity
OVCAR-3 [6] = assay: Growth inhibition of human OVCAR3 cells assessed as cell growth at 0.01 uM incubated for 48 hrs by sulforhodamine B assay relative to control; format: functional; conditions: OVCAR-3, 48 h, read-out: Activity
OVCAR-8 = assay: Growth inhibition of human OVCAR8 cells assessed as cell growth at 0.01 uM incubated for 48 hrs by sulforhodamine B assay relative to control; format: functional; conditions: OVCAR-8, 48 h, read-out: Activity
786-0 = assay: Growth inhibition of human 786-0 cells assessed as cell growth at 0.01 uM incubated for 48 hrs by sulforhodamine B assay relative to control; format: functional; conditions: 786-0, 48 h, read-out: Activity
ACHN = assay: Growth inhibition of human ACHN cells assessed as cell growth at 0.01 uM incubated for 48 hrs by sulforhodamine B assay relative to control; format: functional; conditions: read-out: Activity
SNB-75 = assay: Growth inhibition of human SNB75 cells assessed as cell growth at 0.1 uM incubated for 48 hrs by sulforhodamine B assay relative to control; format: functional; conditions: SNB-75, 48 h, read-out: Activity
SK-MEL-28 [7] = assay: Growth inhibition of human SK-MEL-28 cells assessed as cell growth at 0.1 uM incubated for 48 hrs by sulforhodamine B assay relative to control; format: functional; conditions: SK-MEL-28, 48 h, read-out: Activity
UACC-62 = assay: Growth inhibition of human UACC62 cells assessed as cell growth at 0.1 uM incubated for 48 hrs by sulforhodamine B assay relative to control; format: functional; conditions: UACC-62, 48 h, read-out: Activity
SK-OV-3 = assay: Growth inhibition of human SKOV3 cells assessed as cell growth at 0.1 uM incubated for 48 hrs by sulforhodamine B assay relative to control; format: functional; conditions: SK-OV-3, 48 h, read-out: Activity
MDA-MB-468 = assay: Growth inhibition of human MDA-MB-468 cells assessed as cell growth at 0.1 uM incubated for 48 hrs by sulforhodamine B assay relative to control; format: functional; conditions: MDA-MB-468, 48 h, read-out: Activity
COLO 205 = assay: Growth inhibition of human COLO205 cells assessed as cell growth at 1 uM incubated for 48 hrs by sulforhodamine B assay relative to control; format: functional; conditions: COLO 205, 48 h, read-out: Activity
HCC 2998 = assay: Growth inhibition of human HCC2998 cells assessed as cell growth at 1 uM incubated for 48 hrs by sulforhodamine B assay relative to control; format: functional; conditions: HCC 2998, 48 h, read-out: Activity
HCT-116 = assay: Growth inhibition of human HCT116 cells assessed as cell growth at 1 uM incubated for 48 hrs by sulforhodamine B assay relative to control; format: functional; conditions: HCT-116, 48 h, read-out: Activity
OVCAR-4 = assay: Growth inhibition of human OVCAR4 cells assessed as cell growth at 1 uM incubated for 48 hrs by sulforhodamine B assay relative to control; format: functional; conditions: OVCAR-4, 48 h, read-out: Activity
NCI-H23 = assay: Growth inhibition of human NCI-H23 cells assessed as cell growth at 100 uM incubated for 48 hrs by sulforhodamine B assay relative to control; format: functional; conditions: NCI-H23, 48 h, read-out: Activity
IGROV-1 = assay: Growth inhibition of human IGROV1 cells assessed as cell growth at 100 uM incubated for 48 hrs by sulforhodamine B assay relative to control; format: functional; conditions: IGROV-1, 48 h, read-out: Activity
HL-60(TB) = assay: Growth inhibition of human HL-60(TB) cells assessed as cell growth at 1 uM incubated for 48 hrs by sulforhodamine B assay relative to control; format: functional; conditions: HL-60, 48 h, read-out: Activity
Malme-3M [8] = assay: Growth inhibition of human MALME-3M cells assessed as cell growth at 100 uM incubated for 48 hrs by sulforhodamine B assay relative to control; format: functional; conditions: read-out: Activity
[9] = read-out: LC50 (the source's name)
[10] = read-out: pLC50 (the source's name) (converted)

O=C(Nc1cccc(-n2cc(-c3ccncc3)c(-c3cc(O)cc(Cl)c3)n2)c1)c1cc(C(F)(F)F)cc(C(F)(F)F)c1
growth at 10 µM (SK-MEL-2 [1]): 57.8%
IC50 (RPMI-8226): 2.5 µM
GI50 (RPMI-8226; read-out: GI50): 2.5 µM
CC50 (RPMI-8226; [9]): > 100 µM
TGI (RPMI-8226; read-out: TGI): 12.7 µM
GI50 (RPMI-8226; read-out: pGI50 (converted)): 2.51 µM
CC50 (RPMI-8226; [10]): > 100 µM
TGI (RPMI-8226; read-out: pTGI (converted)): 12.6 µM
GI50 (NCI-H226; read-out: GI50): 1.51 µM
LC50 (NCI-H226; read-out: LC50): > 100 µM
TGI (NCI-H226; read-out: TGI): > 100 µM
GI50 (NCI-H226; read-out: pGI50 (converted)): 16.2 µM
LC50 (NCI-H226; read-out: pLC50 (converted)): > 100 µM
TGI (NCI-H226; read-out: pTGI (converted)): > 100 µM
GI50 (SK-MEL-2 [2]; read-out: GI50): 3.28 µM
CC50 (SK-MEL-2 [2]; [9]): > 100 µM
TGI (SK-MEL-2 [2]; read-out: TGI): 95.1 µM
GI50 (SK-MEL-2 [2]; read-out: pGI50 (converted)): 3.31 µM
CC50 (SK-MEL-2 [2]; [10]): > 100 µM
TGI (SK-MEL-2 [2]; read-out: pTGI (converted)): 9.55 µM
GI50 (SK-MEL-28 [3]; read-out: GI50): 4.71 µM
CC50 (SK-MEL-28 [3]; [9]): > 100 µM
TGI (SK-MEL-28 [3]; read-out: TGI): 85.3 µM
GI50 (SK-MEL-28 [3]; read-out: pGI50 (converted)): 4.68 µM
CC50 (SK-MEL-28 [3]; [10]): > 100 µM
TGI (SK-MEL-28 [3]; read-out: pTGI (converted)): 85.1 µM
IC50 (OVCAR-3 [4]): 3.28 µM
GI50 (OVCAR-3 [4]; read-out: GI50): 3.28 µM
CC50 (OVCAR-3 [4]; [9]): > 100 µM
TGI (OVCAR-3 [4]; read-out: TGI): 25.7 µM
GI50 (OVCAR-3 [4]; read-out: pGI50 (converted)): 3.31 µM
CC50 (OVCAR-3 [4]; [10]): > 100 µM
TGI (OVCAR-3 [4]; read-out: pTGI (converted)): 10.2 µM
GI50 (Hs-578T; read-out: GI50): 6.38 µM
CC50 (Hs-578T; [9]): > 100 µM
TGI (Hs-578T; read-out: TGI): > 100 µM
GI50 (Hs-578T; read-out: pGI50 (converted)): 6.31 µM
CC50 (Hs-578T; [10]): > 100 µM
TGI (Hs-578T; read-out: pTGI (converted)): > 100 µM
growth at 0.01 µM (K562): 99%
growth at 0.01 µM (SF-295): 92%
growth at 0.01 µM (Malme-3M [5]): 97%
growth at 0.01 µM (SK-MEL-5): 97%
growth at 0.01 µM (OVCAR-3 [6]): 102%
growth at 0.01 µM (OVCAR-8): 98%
growth at 0.01 µM (786-0): 94%
growth at 0.01 µM (ACHN): 105%
growth at 0.1 µM (SNB-75): 87%
growth at 0.1 µM (SK-MEL-28 [7]): 103%
growth at 0.1 µM (UACC-62): 97%
growth at 0.1 µM (SK-OV-3): 98%
growth at 0.1 µM (MDA-MB-468): 95%
growth at 1 µM (COLO 205): 97%
growth at 1 µM (HCC 2998): 96%
growth at 1 µM (HCT-116): 59%
growth at 1 µM (OVCAR-4): 101%
growth at 100 µM (NCI-H23): -10%
growth at 100 µM (IGROV-1): 22%

O=C(Nc1cccc(-n2cc(-c3ccncc3)c(-c3cc(O)cc(Cl)c3)n2)c1)Nc1ccc(Cl)c(Cl)c1
IC50 (RPMI-8226): 1.44 µM
GI50 (RPMI-8226; read-out: GI50): 1.44 µM
CC50 (RPMI-8226; [9]): > 100 µM
TGI (RPMI-8226; read-out: TGI): 43 µM
GI50 (RPMI-8226; read-out: pGI50 (converted)): 1.45 µM
CC50 (RPMI-8226; [10]): > 100 µM
TGI (RPMI-8226; read-out: pTGI (converted)): 4.27 µM
GI50 (NCI-H226; read-out: GI50): 2.28 µM
LC50 (NCI-H226; read-out: LC50): > 100 µM
TGI (NCI-H226; read-out: TGI): 71.6 µM
GI50 (NCI-H226; read-out: pGI50 (converted)): 2.29 µM
LC50 (NCI-H226; read-out: pLC50 (converted)): > 100 µM
TGI (NCI-H226; read-out: pTGI (converted)): 7.08 µM
GI50 (SK-MEL-2 [2]; read-out: GI50): 1.3 µM
CC50 (SK-MEL-2 [2]; [9]): 9.1 µM
TGI (SK-MEL-2 [2]; read-out: TGI): 40.4 µM
GI50 (SK-MEL-2 [2]; read-out: pGI50 (converted)): 1.78 µM
CC50 (SK-MEL-2 [2]; [10]): 9.12 µM
TGI (SK-MEL-2 [2]; read-out: pTGI (converted)): 4.07 µM
GI50 (SK-MEL-28 [3]; read-out: GI50): 2.14 µM
CC50 (SK-MEL-28 [3]; [9]): 4.2 µM
TGI (SK-MEL-28 [3]; read-out: TGI): 55.5 µM
GI50 (SK-MEL-28 [3]; read-out: pGI50 (converted)): 2.14 µM
CC50 (SK-MEL-28 [3]; [10]): 41.7 µM
TGI (SK-MEL-28 [3]; read-out: pTGI (converted)): 5.5 µM
IC50 (OVCAR-3 [4]): 1.96 µM
GI50 (OVCAR-3 [4]; read-out: GI50): 1.96 µM
CC50 (OVCAR-3 [4]; [9]): > 100 µM
TGI (OVCAR-3 [4]; read-out: TGI): 50.5 µM
GI50 (OVCAR-3 [4]; read-out: pGI50 (converted)): 1.95 µM
CC50 (OVCAR-3 [4]; [10]): > 100 µM
TGI (OVCAR-3 [4]; read-out: pTGI (converted)): 5.01 µM
GI50 (Hs-578T; read-out: GI50): 3.23 µM
CC50 (Hs-578T; [9]): > 100 µM
TGI (Hs-578T; read-out: TGI): > 100 µM
GI50 (Hs-578T; read-out: pGI50 (converted)): 3.24 µM
CC50 (Hs-578T; [10]): > 100 µM
TGI (Hs-578T; read-out: pTGI (converted)): > 100 µM
growth at 0.01 µM (K562): 107%
growth at 0.01 µM (SF-295): 92%
growth at 0.01 µM (Malme-3M [5]): 57%
growth at 0.01 µM (SK-MEL-5): 95%
growth at 0.01 µM (OVCAR-3 [6]): 103%
growth at 0.01 µM (OVCAR-8): 102%
growth at 0.01 µM (786-0): 92%
growth at 0.01 µM (ACHN): 91%
growth at 0.1 µM (SNB-75): 52%
growth at 0.1 µM (SK-MEL-28 [7]): 97%
growth at 0.1 µM (UACC-62): 99%
growth at 0.1 µM (SK-OV-3): 103%
growth at 0.1 µM (MDA-MB-468): 85%
growth at 1 µM (HL-60(TB)): 106%
growth at 1 µM (COLO 205): 101%
growth at 1 µM (HCC 2998): 96%
growth at 1 µM (HCT-116): 82%
growth at 1 µM (OVCAR-4): 100%
growth at 100 µM (NCI-H23): -35%
growth at 100 µM (Malme-3M [8]): -45%
growth at 100 µM (IGROV-1): -12%
